Literature values, collected in patent publication US20230302026A1, “IMMUNOMODULATION FORMULATIONS AND RELATED METHODS” (priority 2020, published 2023).
Converted amounts (≈) assume the structure as drawn. Read-outs that look alike come from different tables or passages of the source.

Experiments:
CB2 [1] = target: T1, CB2 (Homo sapiens, UniProt P34972)
inflammation = conditions: animal model
CB1 [2] = target: T2, CB1 (Homo sapiens, UniProt P21554); conditions: read-out: Ki, affinity for the human recombinant CB1 receptor
Target sequence in this assay (P21554 whole entry): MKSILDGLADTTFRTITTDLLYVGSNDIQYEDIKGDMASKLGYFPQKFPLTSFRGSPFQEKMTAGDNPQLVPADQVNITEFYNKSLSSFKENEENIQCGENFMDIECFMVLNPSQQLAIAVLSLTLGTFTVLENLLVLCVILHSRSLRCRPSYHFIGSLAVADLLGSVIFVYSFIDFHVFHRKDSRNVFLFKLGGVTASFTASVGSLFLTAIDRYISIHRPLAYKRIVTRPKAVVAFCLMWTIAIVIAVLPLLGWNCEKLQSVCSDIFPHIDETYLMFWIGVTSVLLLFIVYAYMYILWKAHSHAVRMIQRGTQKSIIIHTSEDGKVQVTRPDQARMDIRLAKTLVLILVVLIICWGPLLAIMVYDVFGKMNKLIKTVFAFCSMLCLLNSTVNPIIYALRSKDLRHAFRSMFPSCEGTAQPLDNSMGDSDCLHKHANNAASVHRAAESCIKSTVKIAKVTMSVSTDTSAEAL

CB1 [3] = target: T2, CB1
Target sequence in this assay (P21554 whole entry, species assumed): as the sequence (P21554 whole entry) above

CB2 [4] = target: T1, CB2; remark: listed apart in the source
FAAH [5] = target: T3, FAAH (Homo sapiens, UniProt O00519)
T3 sequence (O00519 1-579): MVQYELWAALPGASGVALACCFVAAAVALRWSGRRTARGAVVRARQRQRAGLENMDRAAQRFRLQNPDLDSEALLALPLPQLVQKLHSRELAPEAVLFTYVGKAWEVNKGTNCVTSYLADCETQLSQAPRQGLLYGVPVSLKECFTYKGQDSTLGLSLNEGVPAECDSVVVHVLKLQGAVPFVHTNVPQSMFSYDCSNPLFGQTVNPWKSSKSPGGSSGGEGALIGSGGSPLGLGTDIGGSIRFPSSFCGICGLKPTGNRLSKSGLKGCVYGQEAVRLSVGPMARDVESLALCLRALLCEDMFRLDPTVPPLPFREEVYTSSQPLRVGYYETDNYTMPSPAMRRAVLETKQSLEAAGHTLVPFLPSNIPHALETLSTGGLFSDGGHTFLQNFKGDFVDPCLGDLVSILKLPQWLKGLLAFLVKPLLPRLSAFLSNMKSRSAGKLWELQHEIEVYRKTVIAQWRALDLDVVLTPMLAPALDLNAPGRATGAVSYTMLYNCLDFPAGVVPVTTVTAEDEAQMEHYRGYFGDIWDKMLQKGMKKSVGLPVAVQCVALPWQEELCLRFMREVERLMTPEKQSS

TRPV1 = TRPV1 (Homo sapiens, UniProt Q8NER1)
TRPV1, sequence (Q8NER1 whole entry, species assumed): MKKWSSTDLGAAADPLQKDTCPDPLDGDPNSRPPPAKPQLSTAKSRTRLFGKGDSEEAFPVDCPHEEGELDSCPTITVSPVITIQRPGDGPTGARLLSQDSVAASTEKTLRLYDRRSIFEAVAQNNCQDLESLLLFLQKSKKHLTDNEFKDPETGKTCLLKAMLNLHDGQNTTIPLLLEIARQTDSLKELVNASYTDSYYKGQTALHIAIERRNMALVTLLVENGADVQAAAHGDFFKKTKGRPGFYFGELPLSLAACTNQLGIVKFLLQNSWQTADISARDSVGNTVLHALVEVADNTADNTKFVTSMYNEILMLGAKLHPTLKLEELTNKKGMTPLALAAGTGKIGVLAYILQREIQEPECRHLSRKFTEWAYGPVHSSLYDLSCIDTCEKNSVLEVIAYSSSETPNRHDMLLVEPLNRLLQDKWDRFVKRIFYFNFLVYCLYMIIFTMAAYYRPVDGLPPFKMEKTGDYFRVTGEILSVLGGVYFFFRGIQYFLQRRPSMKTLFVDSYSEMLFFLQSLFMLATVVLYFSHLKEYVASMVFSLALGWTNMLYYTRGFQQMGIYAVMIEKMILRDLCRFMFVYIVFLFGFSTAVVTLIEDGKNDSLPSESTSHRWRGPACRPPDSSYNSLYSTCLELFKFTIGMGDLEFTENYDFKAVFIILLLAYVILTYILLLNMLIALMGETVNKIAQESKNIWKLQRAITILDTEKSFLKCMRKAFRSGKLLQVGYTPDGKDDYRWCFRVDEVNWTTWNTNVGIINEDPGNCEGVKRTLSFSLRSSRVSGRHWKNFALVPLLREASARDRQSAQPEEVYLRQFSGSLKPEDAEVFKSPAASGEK

Adenosine A2A = Adenosine A2A (Homo sapiens, UniProt P29274)
Adenosine A2A, sequence (P29274 whole entry): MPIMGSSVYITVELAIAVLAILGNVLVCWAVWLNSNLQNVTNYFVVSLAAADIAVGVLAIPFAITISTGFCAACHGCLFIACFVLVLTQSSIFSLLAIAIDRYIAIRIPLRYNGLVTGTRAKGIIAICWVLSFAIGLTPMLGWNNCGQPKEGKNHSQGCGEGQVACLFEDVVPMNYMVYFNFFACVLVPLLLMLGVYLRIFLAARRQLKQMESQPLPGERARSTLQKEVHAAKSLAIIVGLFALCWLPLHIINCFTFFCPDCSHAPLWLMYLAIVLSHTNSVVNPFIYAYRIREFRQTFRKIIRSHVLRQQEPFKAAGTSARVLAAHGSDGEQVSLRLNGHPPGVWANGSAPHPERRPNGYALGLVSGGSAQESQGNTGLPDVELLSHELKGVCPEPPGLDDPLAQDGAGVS

5-HT1a = target: T4, 5-HT1a (Homo sapiens, UniProt P08908)
T4 sequence (P08908 1-422): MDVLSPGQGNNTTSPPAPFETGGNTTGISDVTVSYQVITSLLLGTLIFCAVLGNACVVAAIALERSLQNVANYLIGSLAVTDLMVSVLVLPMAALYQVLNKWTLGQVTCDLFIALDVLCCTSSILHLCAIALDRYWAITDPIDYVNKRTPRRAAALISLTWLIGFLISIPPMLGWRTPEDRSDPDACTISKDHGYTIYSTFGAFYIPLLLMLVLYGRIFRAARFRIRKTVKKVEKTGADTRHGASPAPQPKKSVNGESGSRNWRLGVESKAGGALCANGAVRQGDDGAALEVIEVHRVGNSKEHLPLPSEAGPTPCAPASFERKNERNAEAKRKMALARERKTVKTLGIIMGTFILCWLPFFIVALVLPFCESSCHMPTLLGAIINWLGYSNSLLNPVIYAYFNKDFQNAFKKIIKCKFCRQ

GPR55 = GPR55 (Homo sapiens, UniProt Q9Y2T6)
GPR55, sequence (Q9Y2T6 whole entry, species assumed): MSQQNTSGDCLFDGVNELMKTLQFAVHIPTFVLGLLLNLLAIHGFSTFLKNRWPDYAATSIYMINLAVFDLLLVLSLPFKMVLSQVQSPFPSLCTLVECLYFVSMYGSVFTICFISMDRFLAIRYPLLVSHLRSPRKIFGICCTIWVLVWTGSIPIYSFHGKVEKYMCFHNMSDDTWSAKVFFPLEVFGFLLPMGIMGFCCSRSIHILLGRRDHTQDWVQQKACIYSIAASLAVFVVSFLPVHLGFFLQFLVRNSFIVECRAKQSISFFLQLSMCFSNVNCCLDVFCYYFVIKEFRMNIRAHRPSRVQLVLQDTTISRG

monoamine oxidase = conditions: in vitro; read-out: IC50 as monoamine oxidase inhibitor (MAOI)
MAGL = target: T5, MAGL (Homo sapiens, UniProt Q99685); conditions: read-out: IC50 as MAGL inhibitor
T5 sequence (Q99685 1-303): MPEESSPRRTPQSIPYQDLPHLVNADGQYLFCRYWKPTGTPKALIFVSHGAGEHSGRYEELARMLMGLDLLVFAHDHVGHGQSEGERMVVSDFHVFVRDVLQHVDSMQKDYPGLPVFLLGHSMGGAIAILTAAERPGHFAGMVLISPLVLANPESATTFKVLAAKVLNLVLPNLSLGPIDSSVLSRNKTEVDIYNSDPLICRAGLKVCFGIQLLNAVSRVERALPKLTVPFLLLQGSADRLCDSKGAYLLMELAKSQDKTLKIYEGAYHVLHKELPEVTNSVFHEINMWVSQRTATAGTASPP

FAAH [6] = conditions: read-out: IC50 as FAAH inhibitor
[7] = at 18° C.

T1 sequence (P34972 whole entry): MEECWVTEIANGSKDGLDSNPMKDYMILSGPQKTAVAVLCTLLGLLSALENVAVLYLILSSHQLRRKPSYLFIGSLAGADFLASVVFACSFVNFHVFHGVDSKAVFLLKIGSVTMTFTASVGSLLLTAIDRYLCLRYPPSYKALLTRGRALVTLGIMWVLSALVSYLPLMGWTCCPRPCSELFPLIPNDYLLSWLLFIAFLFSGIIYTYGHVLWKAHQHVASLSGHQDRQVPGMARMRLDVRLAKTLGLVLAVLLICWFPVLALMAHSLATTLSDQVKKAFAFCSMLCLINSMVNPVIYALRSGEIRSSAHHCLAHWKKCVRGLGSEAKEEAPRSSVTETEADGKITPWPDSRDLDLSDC

**Q.** For `c1ccc2c(Cc3c[nH]c4ccccc34)c[nH]c2c1` [3,3′-Diindolylmethane], which Ki (CB2 [1]) is on record?
**A.** The Ki was roughly 1000 nM.

**Q.** For `C=C1CC/C=C(\C)CC[C@@H]2[C@@H]1CC2(C)C` [(E)-BCP, beta-carophyllene], which Ki (CB2 [1]) is on record?
**A.** The Ki was 155 ± 4 nM.

**Q.** For `C/C1=C\CC/C(C)=C/CC(C)(C)/C=C/C1` [Humulene], which anti-inflammatory activity (inflammation) is on record?
**A.** Its anti-inflammatory activity is “equal to dexamethasone”.

**Q.** Which “activity at CB2” value (CB2 [1]) does the source give for `CCCCCc1cc(O)c2c(c1)OC(C)(C)[C@@H]1CCC(C)=C[C@@H]21` [THC, Δ^9-tetrahydrocannabinol] here?
**A.** The value was “partial agonist”.

**Q.** Which Ki (CB1 [2]) does the source give for `COc1ccc(/C=C/c2cc(OC)cc(=O)o2)cc1` [Yangonin, yangonin] here?
**A.** The Ki was 720 nM.

**Q.** And the Ki (CB2 [1])?
**A.** Its Ki is greater than 10000 nM.

**Q.** For `C=C(C)[C@@H]1CCC(C)=C[C@H]1c1c(O)cc(CCCCC)cc1O` [cannabidiol], which “Activity at CB1” value (CB1 [3]) is on record?
**A.** Its value is “Agonist”.

**Q.** What about the “activity at CB2” value (CB2 [4]) of the same compound?
**A.** Its value is “Agonist”.

**Q.** What about the “Activity at FAAH” value (FAAH [5]) of the same compound?
**A.** Its value is “Inhibition”.

**Q.** What about the “Activity at TRPV1” value (TRPV1) of the same compound?
**A.** The value was “Agonist”.

**Q.** What about the “Activity at Adenosine A2A” value (Adenosine A2A) of the same compound?
**A.** The value was “Agonist”.

**Q.** What about the “Activity at 5-HT1a” value (5-HT1a) of the same compound?
**A.** Its value is “Agonist”.

**Q.** What about the “Activity at GPR55” value (GPR55) of the same compound?
**A.** The value was “Antagonist”.

**Q.** With `CC(C)CNC(=O)/C=C/C=C/CCCCCC/C=C/c1ccc2c(c1)OCO2` [guineesine] as the compound, how does the IC50 (monoamine oxidase) read?
**A.** Its IC50 is 139000 nM.

**Q.** Which results are given for `O=c1c(O)c(-c2ccc(O)cc2)oc2cc(O)cc(O)c12` [kaempherol]?
**A.** IC50 (MAGL): < 100 nM; IC50 (FAAH [6]): < 1000 nM

**Q.** With `O=C(/C=C/C=C/c1ccc2c(c1)OCO2)N1CCCCC1` [piperine] as the compound, how does the solubility in water [7] read?
**A.** Its solubility in water is 40 µg/mL (≈ 140 µM).

**Q.** With `C=CC(C)(C)c1cc2cc3c(cc2oc1=O)OC(C(C)(C)OC(C)=O)C3` (stereo not drawn) [rutamarin] as the compound, how does the Ki (CB2 [1]) read?
**A.** Its Ki is less than 10000 nM.
